Test results: patent US20070276032A1, “Use of 8-Prenylnaringenin for Hormone Replacement Therapy” (priority 2003, published 2007)

Assays:
[1] = Body weight, estradiol in ovariectomized rats (Example 2); format: in vivo, Sprague-Dawley rats; conditions: OVX rats, s.c. once a day, 5 days a week, 4 weeks
Procedure: (§1) Fifty-six female Sprague-Dawley rats, 12-14 weeks old, were used altogether. Forty-nine animals were randomized into seven groups. Group 8 (seven animals) administered with the third vehicle, benzyl alcohol/sesame oil, was added to the study thirteen days later. Seven groups were ovariectomized (OVX) and one group was sham-operated (SHAM). Animals were treated subcutaneously once a day, five days a week (Monday-Friday) as follows. Groups 1 (the SHAM group) and 2 (the OVX group) were given the vehicle benzylbenzoate/ricinus oil (0.5 ml/kg, B/R). […] Treatments started on the day following surgical operation and continued for 4 weeks. At the end of the study, ex vivo BMD of proximal tibia was measured and serum estradiol was determined. In addition, uterus was weighed.

ERE-Luc = experiment: Estrogenic activity in the estrogen reporter mouse ERE-Luc model, luciferase activity in organs (Example 5); format: in vivo, mice; conditions: male ERE-Luc mice, six hours after the injection; for Luciferase activity, Prostate: controls 0.5; for Luciferase activity, Bone: controls 2.8; for Luciferase activity, Brain: controls 6.5; for Luciferase activity, Liver: controls 7.6
Procedure: In order to avoid experimental noise male animals were used.
Fourtyfive heterozygous male ERE-Luc mice of two months of age were fed with soy-free diet for two weeks before assigning them to each experimental group then all the mice were injected intraperitoneally (i.p.) with 250 μl of an oily solution containing the following compounds: • 1. Experimental group 1: vehicle • 2. Experimental group 2: 17β-estradiol at 1.5 μg/kg • 3. Experimental group 3: 2S(−)-8-PN at 30 mg/kg • 4. […] Experimental group 5: genistein at 30 mg/kg.
The treatment was carried out in experimental groups of three mice each and repeated three times (therefore numbers reflect the average of […] determinations on a total of 9 animals).
Six hours after the injection, mice were sacrificed by cervical dislocation and organs were dissected and frozen on dry ice. The following organs were analyzed for lucifererase activity by enzymatic assay: prostate, liver, bone, brain.
Data represent means ±standard deviation of N=9 animals per group.
Analysis of variance (ANOVA) for overall comparison was followed by Tukey test for paired comparisons. All statistical procedures were carried out with Systat and SAS (*P<0.05; **P<0.01).

ovariectomized rats [2] = experiment: Relative uterine weight, estradiol in ovariectomized rats (Example 2); format: in vivo, Sprague-Dawley rats; conditions: OVX rats; for Relative uterine weight: s.c. 5 days a week, 4 weeks
Procedure: as §1, with “weighed. Relative uterine weight was calculated as percentage of body weight” for “weighed.”

ovariectomized rats [3] = experiment: Bone mineral density of proximal tibia, estradiol in ovariectomized rats (Example 2); format: in vivo, Sprague-Dawley rats; conditions: OVX rats; for Total bone density / Trabecular density: proximal tibia, s.c. 5 days a week, 4 weeks
Procedure: as §1, with “weighed. Bone mineral density measurement was carried out by pQCT (XCT-960A, Stratec, Germany). The bone specimens were thawed before measurement. Six 1 mm-thick sections of the proximal tibia (2 mm below the epiphyseal growth plate) were scanned at 0.5 mm intervals using a voxel size of 0.148 mm. […] After bone densitometry, the specimens were wrapped back to saline saturated gauzes and stored at −20° C.” for “weighed.”

[4] = Body weight, 8-PN racemic, 2S(−) 8-PN and estradiol hemihydrate in ovariectomized rats (Example 4); format: in vivo, Sprague-Dawley rats; conditions: OVX rats, s.c. once a day, 28 days
Procedure: (§2) The aim of the study was to directly compare the effects of Prenylnaringenin (racemate) and 2S(−) 8-Prenylnaringenin to the effects of estradiol hemihydrate on bone mineral density and uterine weight on 3-month-old ovariectomized rats using identical formulations. In addition, the effects of estradiolhemihydrate in two vehicles (oily, aqueous) were examined for influence of formulations. The substances were administered subcutaneously(s.c.) seven days a week beginning the day after ovariectomy. At the end of the study, uterine weight and bone mineral density (BMD) of tibia were measured.
(§3) Forty-one female Sprague-Dawley rats, 12-14 weeks of age were randomized into six groups, 6-8 animals in each. Five groups were ovariectomized (OVX) and one group was sham-operated (SHAM). Treatments started on the day following operation and continued for 28 days. The animals were treated s.c. once a day seven times a week as follows. Group 1 (SHAM vehicle group) and group 2 (OVX vehicle group) were given the vehicle 30% hydroxypropyl-β-cyclodextrin (HP-β-CD). Groups 3 and 4 were administered 4 μg/kg/d of estradiol hemihydrate in vehicle benzyl benzoate/ricinus oil (B/R) and in vehicle HP-β-CD, respectively. Groups 5 and 6 were given 20 mg/kg/d of 2S(−)8-Prenylnaringenin and racemic 8-Prenylnaringenin, respectively, both in vehicle HP-β-CD. At the end of the study, left tibiae were excised for the ex vivo BMD […] were taken from all dosing solutions on the first and last day of use.
(§4) Vehicle 1 (used in the groups 1 and 2): 30% hydroxypropyl-β-cyclodextrin and 0.3% NaCl (w/v), 5% ethanol (v/v) in Aqua sterilisata, pH 7.4.
(§5) Vehicle 2 (used when preparing dosing solutions of the groups 4, 5 and 6): 30% hydroxypropyl-β-cyclodextrin and 0.3% NaCl (w/v) in Aqua sterilisata, pH 7.4.
(§6) Vehicle 3 (used when preparing a dosing solution of the group 3): benzyl benzoate/ricinus oil (B/R) 1+4, v/v.

ovariectomized rats [5] = experiment: Relative uterus weight, 8-PN racemic, 2S(−) 8-PN and estradiol hemihydrate in ovariectomized rats (Example 4); format: in vivo, Sprague-Dawley rats; conditions: OVX rats, s.c. 28 days, calculated as percentage of body weight
Procedure: as §2, §3, §4, §5, §6

ovariectomized rats [6] = experiment: Trabecular density of proximal tibia, 8-PN racemic, 2S(−) 8-PN and estradiol hemihydrate in ovariectomized rats (Example 4); format: in vivo, Sprague-Dawley rats; conditions: OVX rats, s.c. 28 days
Procedure: as §2, §3, §4, §5, §6

[7] = 4.0 μpg/kg/d s.c. five times a week for four weeks
[8] = 4 μg/kg/d in benzyl benzoate/ricinus oil (B/R)

## C[C@]12CC[C@@H]3c4ccc(O)cc4CC[C@H]3[C@@H]1CC[C@@H]2O [17β-estradiol]
[1]; 0.2 μg/kg/d in vehicle B/R
  Final body weight: 304 (6) g
  The change in body weight: 51 (3) g
[1]; 0.4 μg/kg/d in vehicle B/R
  Final body weight: 312 (6) g
  The change in body weight: 53 (5) g
[1]; 1.2 μg/kg/d in vehicle B/R
  Final body weight: 303 (6) g
  The change in body weight: 48 (4) g
[1]; 1.2 μg/kg/d in vehicle E/A
  Final body weight: 287 (8) g
  The change in body weight: 33 (3) g
[1]; 4.0 μg/kg/d in vehicle B/R
  Final body weight: 284 (7) g
  The change in body weight: 31 (3) g
ERE-Luc; i.p. 1.5 μg/kg
  Luciferase activity, Prostate: 0.5 arbitrary units
  Luciferase activity, Bone: 2.6 arbitrary units
  Luciferase activity, Brain: 6.6 arbitrary units
  Luciferase activity, Liver: 11.0 ** arbitrary units
Ovariectomized rats [2]; [7]
  effect on relative uterine weight: prevented the decrease in relative uterine weight and maintained it on the level of the SHAM vehicle group
Ovariectomized rats [2]; 0.2 μg/kg/d in B/R
  Relative uterine weight: 0.045 (0.003) % of body weight
Ovariectomized rats [2]; 0.4 μg/kg/d in B/R
  Relative uterine weight: 0.054 (0.003) % of body weight
Ovariectomized rats [2]; 1.2 μg/kg/d in B/R
  Relative uterine weight: 0.110 (0.008) % of body weight
Ovariectomized rats [2]; 1.2 μg/kg/d in E/A
  Relative uterine weight: 0.114 (0.005) % of body weight
Ovariectomized rats [2]; 4.0 μg/kg/d in B/R
  Relative uterine weight: 0.159 (0.006) % of body weight
Ovariectomized rats [3]; [7]
  effect on total and trabecular bone mineral density of proximal tibia: prevented the OVX-induced decrease in total and trabecular bone mineral density of proximal tibia
Ovariectomized rats [3]; 0.2 μg/kg/d in B/R
  Total bone density: 511 (17) mg/cm^3
  Trabecular density: 271 (17) mg/cm^3
Ovariectomized rats [3]; 0.4 μg/kg/d in B/R
  Total bone density: 506 (8) mg/cm^3
  Trabecular density: 260 (13) mg/cm^3
Ovariectomized rats [3]; 1.2 μg/kg/d in B/R
  Total bone density: 577 (24) mg/cm^3
  Trabecular density: 376 (31) mg/cm^3
Ovariectomized rats [3]; 1.2 μg/kg/d in E/A
  Total bone density: 577 (22) mg/cm^3
  Trabecular density: 366 (24) mg/cm^3
Ovariectomized rats [3]; 4.0 μg/kg/d in B/R
  Total bone density: 637 (13) mg/cm^3
  Trabecular density: 435 (21) mg/cm^3

## O=c1c(-c2ccc(O)cc2)coc2cc(O)cc(O)c12 [Genistein, genistein]
ERE-Luc; i.p. 30 mg/kg
  Luciferase activity, Prostate: 0.7 ** arbitrary units
  Luciferase activity, Bone: 3.8 * arbitrary units
  Luciferase activity, Brain: 8.7 arbitrary units
  Luciferase activity, Liver: 12.2 ** arbitrary units

## C[C@]12CC[C@@H]3c4ccc(O)cc4CC[C@H]3[C@@H]1CC[C@@H]2O [estradiol hemihydrate, 17β-estradiol hemihydrate, reference compound]
[1]; 1.2 μg/kg/d in vehicle BA/S
  Final body weight: 288 (11) g
  The change in body weight: 28 (1) g
Ovariectomized rats [2]; 1.2 μg/kg/d in BA/S
  Relative uterine weight: 0.131 (0.008) % of body weight
[4]; 4 μg/kg/d in HP-β-CD
  Body weight at The end (bw4b): 285(9) g
  The change in Body weight (bw4b-bw0): 10(4) g
[4]; [8]
  Body weight at The end (bw4b): 291(9) g
  The change in Body weight (bw4b-bw0): 17(4) g
Ovariectomized rats [5]; 4 μg/kg/d in B/R
  Relative uterus weight, Mean: 0.175
  Relative uterus weight, Median: 0.178
Ovariectomized rats [5]; 4 μg/kg/d in HP-β-CD
  Relative uterus weight, Mean: 0.131
  Relative uterus weight, Median: 0.120
Ovariectomized rats [3]; 1.2 μg/kg/d in BA/S
  Total bone density: 596 (18) mg/cm^3
  Trabecular density: 386 (21) mg/cm^3
Ovariectomized rats [6]; 4 μg/kg/d in B/R
  Trabecular density at left proximal tibia, Mean: 542 mg/cm3
  Trabecular density at left proximal tibia, Median: 577 mg/cm3
Ovariectomized rats [6]; 4 μg/kg/d in HP-β-CD
  Trabecular density at left proximal tibia, Mean: 406 mg/cm3
  Trabecular density at left proximal tibia, Median: 383 mg/cm3
